Data: patent publication US4156009A, “Diazepine derivatives” (Hexachimie, priority 1977, dated 1979)

Columns and labels:
[1] = tested on: ulcers caused by phenylbutazone; assay: Protective activity as regards ulcers caused by phenylbutazone; type: in vivo, rat (male, OFA strain); conditions: for Ulceration Index: maximum index 300
Method: Male rats, of the OFA strain, weighing 160-180 g are placed on a diet of water 24 hours before the oral administration of the product studied (1 cm^3 /100 g). 30 minutes later, the rats receive 150 mg/kg phenylbutazone (1 cm^3 /100 g) orally.
The stomachs are removed 6 hours after the last treatment. Each stomach is classified according to the following scale:
The average of the results for a batch, multiplied by the percentage of rats having ulcers in this batch, gives an ulceration index whose maximum is 300.
The following Table I gives the ulceration indices and the protective dose 50 (PD50) which corresponds to the index 150.

[2] = tested on: Shay ulcers; assay: Activity on Shay ulcers (pylorus ligation); type: in vivo, rat (male, OFA strain); conditions: 2 hours after binding; for Pepsin / pH / Volume / Acidity free / Acidity total: gastric liquid; for Acidity free / Acidity total: potentiometry; for Ulcers: number in the rumen; for Acidity free ds the secretion / Acidity total ds the secretion / Pepsin ds the secretion: whole secretion
Method: Male rats of the OFA strain, weighing 190-210 g, receive a solution of 20% glucose and […] sodium chloride as their only food for 3 days.
Under an ether anaesthetic, the pylorus is tied, while taking care not to include blood vessels in the binding. The tested product is administered intraperitoneally and the stomach is removed 2 hours after the binding. The gastric liquid is collected and the following parameters are measured:
free acidity (potentiometry)
total acidity (potentiometry)
peptic activity (hydrolysis of albumen of oxen and measurement of the tyrosine liberated).
The number of ulcers in the rumen are counted.

[3] = Acute toxicity; design: species or system rat; conditions: in vivo
[4] = 8 mg/kg intraperitoneally, p < 0.05
[5] = 16 mg/kg intraperitoneally, p < 0.01
[6] = 32 mg/kg intraperitoneally, p < 0.001
[7] = 32 mg/kg intraperitoneally, p < 0.01

With `CN1C(=O)CN=C(c2ccccc2)c2c(C3CC3)csc21` [Example 6, 6-Cyclopropyl-1,3-dihydro-1-methyl-5-phenyl-2-oxo-2H-thieno[2,3-e]diazepine] the “Ulceration Index” value ([1]; 16 mg/kg orally) was 240, the “Ulceration Index” value ([1]; 32 mg/kg orally) was 179 and the “Ulceration Index” value ([1]; 64 mg/kg orally) was 62. For the same compound, the “Ulceration Index” value ([1]; 128 mg/kg orally) was 29, the ED50 ([1]; Rattus norvegicus, po, orally, corresponds to ulceration index 150, read-out: PD50 (protective dose 50)) was 39 mg/kg and the Pepsin ([2]; 8 mg/kg intraperitoneally, ns) was 0.67 mg/mL. It also gave a pH ([2]; 8 mg/kg intraperitoneally, ns) of 1.19, a Volume [2, 4] of 4.0 cm^3 and an Acidity free ([2]; 8 mg/kg intraperitoneally, ns) of 91 mEq/l. For the same compound, the Acidity total ([2]; 8 mg/kg intraperitoneally, ns) was 109 mEq/l, the Pepsin ([2]; 16 mg/kg intraperitoneally, ns) was 0.67 mg/mL and the pH ([2]; 16 mg/kg intraperitoneally, ns) was 1.21. For the same compound, the Volume [2, 5] was 2.7 cm^3, the Acidity free ([2]; 16 mg/kg intraperitoneally, ns) was 82 mEq/l and the Acidity total ([2]; 16 mg/kg intraperitoneally, ns) was 102 mEq/l. For the same compound, the Pepsin ([2]; 32 mg/kg intraperitoneally, ns) was 0.64 mg/mL, the Volume [2, 6] was 1.7 cm^3 and the pH ([2]; 32 mg/kg intraperitoneally, p < 0.05) was 1.67. For the same compound, the Acidity free [2, 7] was 56.5 mEq/l, the Acidity total [2, 7] was 80 mEq/l and the Ulcers ([2]; 8 mg/kg intraperitoneally) was 0. For the same compound, the Ulcers ([2]; 16 mg/kg intraperitoneally) was 0, the Ulcers ([2]; 32 mg/kg intraperitoneally) was 0 and the “Acidity free ds the secretion” value ([2]; 8 mg/kg intraperitoneally, ns) was 388 mEq/l. For the same compound, the “Acidity total ds the secretion” value ([2]; 8 mg/kg intraperitoneally, ns) was 459 mEq/l, the “Pepsin ds the secretion” value [2, 4] was 2.66 mg and the “Acidity free ds the secretion” value [2, 5] was 275 mEq/l. For the same compound, the “Acidity total ds the secretion” value [2, 5] was 335 mEq/l, the “Pepsin ds the secretion” value [2, 5] was 1.83 mg and the “Acidity free ds the secretion” value [2, 6] was 145 mEq/l. For the same compound, the “Acidity total ds the secretion” value [2, 6] was 189 mEq/l, the “Pepsin ds the secretion” value [2, 6] was 1.14 mg and the LD50 ([3]; po, orally in the rat, read-out: lethal dose LD50) was 915 mg/kg. It also gave a selectivity ratio ([3]; LD50 / PD50, oral, rat, read-out: ratio of toxicity/activity or therapeutic index) of roughly 23.
